Measurements as given in the NIST ThermoML archive (doi:10.1016/j.fluid.2006.01.026).
± gives the expanded uncertainty stated by the source.

Settings: 101.33 kPa, Liquid; for viscosity: Capillary tube (Ostwald / Ubbelohde) method; for mass density: Vibrating tube method

viscosity (283.15 K)	viscosity (293.15 K)	viscosity (303.15 K)	viscosity (313.15 K)	viscosity (323.15 K)	viscosity (333.15 K)	viscosity (343.15 K)	viscosity (353.15 K)	viscosity (363.15 K)	viscosity (373.15 K)	mass density (283.15 K)	mass density (298.15 K)	mass density (323.15 K)	mass density (348.15 K)	Compound
626 ± 68 mPa·s	298 ± 31 mPa·s	159 ± 16 mPa·s	93 ± 9 mPa·s	59 ± 6 mPa·s	39.8 ± 4 mPa·s	28.2 ± 2.8 mPa·s	20.7 ± 2.1 mPa·s	15.6 ± 1.6 mPa·s	11.9 ± 1.2 mPa·s					CCCCn1cc[n+](C)c1.O=S(=O)([O-])C(F)(F)C(F)OC(F)(F)F (stereo not drawn)
1319 ± 150 mPa·s	625 ± 68 mPa·s	330 ± 35 mPa·s	191 ± 20 mPa·s	118 ± 12 mPa·s	77.4 ± 7.8 mPa·s	52.9 ± 5.3 mPa·s	37.2 ± 3.8 mPa·s	26.7 ± 2.7 mPa·s	19.3 ± 1.9 mPa·s	1075 ± 2 kg/m3	1063 ± 2 kg/m3	1044 ± 2 kg/m3	1025 ± 2 kg/m3	CCCCCCCCCCCCCC[P+](CCCCCC)(CCCCCC)CCCCCC.O=S(=O)([O-])C(F)(F)C(F)OC(F)(F)C(F)(F)F
1021 ± 110 mPa·s	444 ± 48 mPa·s	218 ± 23 mPa·s	119 ± 12 mPa·s	71.2 ± 7.2 mPa·s	45.9 ± 4.6 mPa·s	31.6 ± 3.2 mPa·s	22.9 ± 2.3 mPa·s	17.3 ± 1.7 mPa·s	13.5 ± 1.4 mPa·s					CCCCn1cc[n+](C)c1.O=S(=O)([O-])C(F)(F)C(F)OC(F)(F)C(F)(F)F (stereo not drawn)
2512 ± 300 mPa·s	1103 ± 120 mPa·s	539 ± 58 mPa·s	289 ± 30 mPa·s	167 ± 17 mPa·s	103 ± 10 mPa·s	66.6 ± 6.7 mPa·s	45 ± 4.5 mPa·s	31.5 ± 3.2 mPa·s	22.6 ± 2.3 mPa·s	1082 ± 2 kg/m3	1070 ± 2 kg/m3	1052 ± 2 kg/m3	1034 ± 2 kg/m3	CCCCCCCCCCCCCC[P+](CCCC)(CCCC)CCCC.O=S(=O)([O-])C(F)(F)C(F)C(F)(F)F
853 ± 94 mPa·s	378 ± 40 mPa·s	192 ± 20 mPa·s	108 ± 11 mPa·s	66.8 ± 6.8 mPa·s	44.2 ± 4.5 mPa·s	30.8 ± 3.1 mPa·s	22.3 ± 2.2 mPa·s	16.6 ± 1.7 mPa·s	12.5 ± 1.3 mPa·s					CCCC[n+]1ccn(C)c1.O=S(=O)([O-])C(F)(F)C(F)C(F)(F)F (stereo not drawn)
